Read-outs that look alike come from different tables or passages of the source.
Legend:
Assay in all cases: microbe, parasite or virus in culture
Parameters in all cases: species or system Enterobacteriaceae strains
K. pneumoniae OXA-48 [1] = details: Klebsiella pneumoniae, OXA48, read-out: MIC
E. coli VIM-2 [2] = details: Escherichia coli, VIM2, read-out: MIC
E. cloacae IMP-1 [3] = details: Enterobacter cloacae, IMP1, read-out: MIC
K. pneumoniae VIM-1 [4] = details: Klebsiella pneumoniae, VIM1, read-out: MIC
E. cloacae VIM-1 [5] = details: Enterobacter cloacae, VIM1, read-out: MIC
C. freundii NDM-1 [6] = details: Citrobacter freundii, NDM1, read-out: MIC
E. cloacae NDM-1 [7] = details: Enterobacter cloacae, NDM1, read-out: MIC
E. coli NDM-4 [8] = details: Escherichia coli, NDM4, read-out: MIC
K. pneumoniae IMP-8 [9] = details: Klebsiella pneumoniae, IMP8, read-out: MIC
[10] = tested on: K. pneumoniae ATCC BAA 1706; details: Klebsiella pneumoniae, BAA1706, read-out: MIC
E. cloacae IMP-8 [11] = details: Enterobacter cloacae, IMP8, read-out: MIC
P. rettgeri NDM-1 [12] = details: Providencia rettgeri, NDM1, read-out: MIC
E. coli NDM-1 [13] = details: Escherichia coli, NDM1, read-out: MIC
E. coli IMP-1 [14] = details: Escherichia coli, IMP1, read-out: MIC
K. pneumoniae IMP-1 [15] = details: Klebsiella pneumoniae, IMP1, read-out: MIC
E. coli VIM-1 [16] = details: Escherichia coli, VIM1, read-out: MIC
E. coli ATCC 25922 [17] = details: Escherichia coli, ATCC25922, read-out: MIC
P. stuartii NDM-1 [18] = details: Providencia stuartii, NDM1, read-out: MIC
E. coli NDM-4 [19] = details: Escherichia coli, NDM4, read-out: MIC; remark: listed apart in the source
[20] = tested on: K. pneumoniae ATCC BAA 1706; details: Klebsiella pneumoniae, BAA1706, read-out: MIC; remark: listed apart in the source
E. cloacae IMP-1 [21] = details: Enterobacter cloacae, IMP1, read-out: MIC; remark: listed apart in the source
E. cloacae IMP-8 [22] = details: Enterobacter cloacae, IMP8, read-out: MIC; remark: listed apart in the source
C. freundii NDM-1 [23] = details: Citrobacter freundii, NDM1, read-out: MIC; remark: listed apart in the source
E. coli IMP-1 [24] = details: Escherichia coli, IMP1, read-out: MIC; remark: listed apart in the source
P. stuartii NDM-1 [25] = details: Providencia stuartii, NDM1, read-out: MIC; remark: listed apart in the source
E. cloacae NDM-1 [26] = details: Enterobacter cloacae, NDM1, read-out: MIC; remark: listed apart in the source
E. coli ATCC 25922 [27] = details: Escherichia coli, ATCC25922, read-out: MIC; remark: listed apart in the source
P. rettgeri NDM-1 [28] = details: Providencia rettgeri, NDM1, read-out: MIC; remark: listed apart in the source
K. pneumoniae IMP-1 [29] = details: Klebsiella pneumoniae, IMP1, read-out: MIC; remark: listed apart in the source
E. cloacae VIM-1 [30] = details: Enterobacter cloacae, VIM1, read-out: MIC; remark: listed apart in the source
E. coli NDM-1 [31] = details: Escherichia coli, NDM1, read-out: MIC; remark: listed apart in the source
K. pneumoniae VIM-1 [32] = details: Klebsiella pneumoniae, VIM1, read-out: MIC; remark: listed apart in the source
K. pneumoniae OXA-48 [33] = details: Klebsiella pneumoniae, OXA48, read-out: MIC; remark: listed apart in the source
E. coli VIM-2 [34] = details: Escherichia coli, VIM2, read-out: MIC; remark: listed apart in the source
E. coli VIM-1 [35] = details: Escherichia coli, VIM1, read-out: MIC; remark: listed apart in the source
K. pneumoniae IMP-8 [36] = details: Klebsiella pneumoniae, IMP8, read-out: MIC; remark: listed apart in the source

Measured: MIC

C[C@@H](O)[C@H]1C(=O)N2C(C(=O)O)=C(S[C@@H]3CN[C@H](C(=O)N(C)C)C3)[C@H](C)[C@H]12 [MEM, meropenem]
128 µg/mL: E. coli NDM-4 [8] | E. coli NDM-1 [13]
16 µg/mL: E. cloacae NDM-1 [7] | K. pneumoniae IMP-8 [9] | E. coli IMP-1 [14] | P. stuartii NDM-1 [18]
8 µg/mL: K. pneumoniae OXA-48 [1] | E. coli VIM-2 [2] | E. cloacae VIM-1 [5] | C. freundii NDM-1 [6] | E. cloacae IMP-8 [11]
64 µg/mL: P. rettgeri NDM-1 [12]
0.03 µg/mL: E. coli ATCC 25922 [17]
0.5 µg/mL: [10]
32 µg/mL: E. cloacae IMP-1 [3] | K. pneumoniae VIM-1 [4] | K. pneumoniae IMP-1 [15] | E. coli VIM-1 [16]

C1CNCCNCCN1 [compound 1, 1,4,7-triazacyclononane]
128 µg/mL: E. cloacae VIM-1 [30] | K. pneumoniae OXA-48 [33] | E. coli VIM-2 [34]
512 µg/mL: E. cloacae IMP-1 [21] | E. cloacae IMP-8 [22] | E. coli IMP-1 [24] | K. pneumoniae IMP-1 [29] | K. pneumoniae VIM-1 [32]
1020 µg/mL: E. coli NDM-4 [19] | [20] | C. freundii NDM-1 [23] | E. coli ATCC 25922 [27] | E. coli NDM-1 [31] | E. coli VIM-1 [35] | K. pneumoniae IMP-8 [36]
> 1020 µg/mL: P. stuartii NDM-1 [25] | E. cloacae NDM-1 [26] | P. rettgeri NDM-1 [28]

Reference: paper doi:10.1101/366146v2 (biorxiv, 2018)
